Results: article PMC5799307, “Creation of a long-acting nanoformulated dolutegravir” (Nature Communications, 2018)

Assays:
MDM = assay: LDH cytotoxicity assay in MDM; type: cell-based, human; conditions: 24 h, 400 µM
[1] = Blood and tissue DTG levels and animal weights in hu-PBL-NSG mice; type: in vivo; conditions: NOD/scid-IL-2Rγc^null (NSG), mouse, intramuscular, 45 mg/kg DTG-eq.; kidney, day 39; read-out: tissue DTG level
Method: NOD/scid-IL-2Rγc^null (NSG) mice (6–7 weeks of age; Jackson Labs, Bar Harbor, ME) were administered a single IM injection in a volume of 40 µL/25 g mouse of NDTG or NMDTG at a concentration of 45 mg/kg DTG-eq. on day 0 for measures of relative viral restriction. Mice were then reconstituted with 25 × 10^6 human peripheral blood lymphocytes (hu-PBL) per mouse 4 or 19 days post drug treatment by IP injection. Next, mice were challenged 10 days post hu-PBL reconstitution with HIV-1ADA at 14 or 29 days post drug treatment by IP injection at a TCID50 of 2 × 10^4 per mouse. […] Plasma was saved for viral load (HIV-1 RNA) quantitation using the Roche Amplicor and Taqman-48 system [HIV-1 kit V2.0 according to the manufacturer’s instructions (Indianapolis, IN)]. Blood and tissue drug concentrations were determined by UPLC-MS/MS as described above. […] The number of HIV-1p24+ and HLA-DP/DQ/DR+ cells per section were counted and expressed as percentage of HIV-1p24+ cells/HLA-DP/DQ/DR+ cells per section. […] Plasma was used for quantitative viral load (measurements of HIV-1 RNA) using the Roche Amplicor and Taqman-48 system. Blood and tissue drug concentrations were determined by UPLC-MS/MS as described above. […]

## C[C@@H]1CCO[C@H]2Cn3cc(C(=O)NCc4ccc(F)cc4F)c(=O)c(O)c3C(=O)N12 [DTG, dolutegravir]
MDM
  cytotoxicity by LDH: changes in cell vitality
[1]
  concentration at 39 days: 4.1 ng/g
